Patent US20020137706A1, “Regulated growth factor delivery for engineered peripheral nerve” (priority 2000, published 2002)

Key:
PC-12 cells = assay: Bioactivity assay of released NGF, PC-12 differentiation; assay type: cell-based; conditions: 4 days culture in supernatant of MurA-induced transfected hDFBs; p≦0.002
Description: PC-12 cells were obtained from ATCC (CRL-1721). PC-12 cells were maintained in F12k supplemented with 15% horse serum (Sigma, St. Louis, Mo.), 2.5% FBS, and penicillin-streptomycin-glutamine mixture (Gibco). For the NGF bioactivity assay, PC-12 cells were seeded at 10^2 cells/750 μL in 12-well plates.
NGF Bioactivity. Bioactivity assay of released NGF was assessed using PC-12 cells with their differentiation as the endpoint. PC-12 cells were incubated with PC.12 culture media (control) or media supernatants from transfected hDFBs in the presence of MurA (i.e., media with released NGF). Briefly, hDFBs were cultured and exposed to 3 μM Muristerone for 3 days in 12-well plates.
The media, theoretically with containing NGF released from transfected hDFBs, was then removed and used to culture PC-12 cells in 12-well plates. After 4 days, random images were digitized of each well and the number of differentiated and undifferentiated Data are reported as fraction of PC-12 cells that were differentiated.

[1] = system: right sciatic nerve defect; conditions: rat, in vivo
Description: Surgical Technique. Twenty-one Sprague Dawley (250 gms) rats with a right sciatic nerve defect were implanted with the 12 mm PLLA conduits. […] Briefly the animals were anesthetized and maintained by a 0.4 cc intramuscular injection of a premixed solution containing 64 mg/ml ketamine HCL (Keta-Sthetic™ Boehringer Ingelheim, St Joseph, Mo.), 3.6 mg/ml xylazine (Rompun™ Miles Inc., Shawnee Mission, Kans.), and 0.07 mg/ml atropine sulfate (Elkins-Sinn Inc., Cherry Hill, N.J.). The skin from the clipped lateral thigh was scrubbed in a routine fashion with antiseptic solution. The incision extended from the greater trochanter to the midcalf distally. The sciatic and posterior tibial nerves were exposed by a muscle splitting incision. […]
The medical and lateral gastrocnemius muscle was harvested at 6 and 16 weeks and weighed in order to assess nerve reinnervation. […] The difference in weight of the containers before and after muscle placement determined the muscle weight.
Histological Assessment. […] Images of the histological sections were digitized using a CCD camera and subsequently analyzed using standard image processing and analysis techniques. […] The number of axons were counted to give the number of axons/mm^2. The area of each axon was determined, summed together, and expressed as area axons/image area to give the nerve fiber density. […]

| Substance | PC-12 differentiation versus media alone (PC-12 cells) | inflammatory reaction [1] | neuromas [1] |
| --- | --- | --- | --- |
| NGF secreted from hDFBs: nerve growth factor in media supernatants from transfected hDFBs in the presence of MurA | markedly higher levels |  |  |
| poly (L-Lactic acid) [PLLA conduits] |  | No severe inflammatory reaction could be identified | no neuromas were apparent clinically |
